The test system of the test is BDF1 mice, B16 melanoma ip, median survival T/C. Description: NCI In Vivo Anticancer Drug Screen. Data for tumor model B16 Melanoma (intraperitoneal) in B6D2F1 (BDF1) mice. Particulars: endpoint: median survival time, higher = longer survival. Put shortly: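 Read-out: survival or tumor size, given as treated/control ratio. Controls received vehicle only; animals bore transplantable tumors.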

Setting [1] is: dose: 12.5 mg/kg/injection, schedule: Q01DX009 (ip), vehicle: saline.
Setting [2] is: dose: 25.0 mg/kg/injection, schedule: Q01DX009 (ip), vehicle: saline.
[3] abbreviates: dose: 50.0 mg/kg/injection, schedule: Q01DX009 (ip), vehicle: saline.
[4] abbreviates: dose: 0.5 mg/kg/injection, schedule: Q01DX009 (ip), vehicle: saline.
The mark [5] stands for this setting: dose: 100.0 mg/kg/injection, schedule: Q04DX003 (ip), vehicle: Klucel (hydroxypropylcellulose) (HPC).
Where [6] appears, read: dose: 50.0 mg/kg/injection, schedule: Q01DX009 (ip), vehicle: Klucel (hydroxypropylcellulose) (HPC).
The mark [7] stands for this setting: dose: 100.0 mg/kg/injection, schedule: Q01DX009 (ip), vehicle: Klucel (hydroxypropylcellulose) (HPC).
Where [8] appears, read: dose: 200.0 mg/kg/injection, schedule: Q01DX009 (ip), vehicle: Klucel (hydroxypropylcellulose) (HPC).
Setting [9] is: dose: 400.0 mg/kg/injection, schedule: Q01DX009 (ip), vehicle: Klucel (hydroxypropylcellulose) (HPC).
Setting [10] is: dose: 400.0 mg/kg/injection, schedule: Q04DX003 (ip), vehicle: Klucel (hydroxypropylcellulose) (HPC).
Where [11] appears, read: dose: 25.0 mg/kg/injection, schedule: Q01DX009 (ip), vehicle: Klucel (hydroxypropylcellulose) (HPC).
Setting [12] is: dose: 3.12 mg/kg/injection, schedule: Q01DX009 (ip), vehicle: Klucel (hydroxypropylcellulose) (HPC).
[13] abbreviates: dose: 6.25 mg/kg/injection, schedule: Q01DX009 (ip), vehicle: Klucel (hydroxypropylcellulose) (HPC).
The mark [14] stands for this setting: dose: 12.5 mg/kg/injection, schedule: Q01DX009 (ip), vehicle: Klucel (hydroxypropylcellulose) (HPC).

This note sets out measurements from PubChem BioAssay AID192 (DTP/NCI, 2004).

Several values for one entry are separate records, joined by “and”; a condition that tells them apart may be missing. Equal values may be shown once. Inconclusive results and toxic doses are left out.

With `O=c1[nH]c(=O)n(C2CC(O)C(CO)O2)cc1C(F)(F)F` (stereo unspecified), the T/C is 104 % of control under setting [1]; 105 % of control (dose: 20.0 mg/kg/injection, schedule: Q01DX009 (ip), vehicle: saline); 102 % of control under setting [2]; 112 % of control under setting [3].

`[Cl][Pt][Cl].[NH-]C(CO)C(=O)O` (stereo unspecified): under “dose: 12.5 mg/kg/injection, schedule: Q01DX009 (ip), vehicle: water”, the T/C was 151 % of control.

For `NC(=O)CNC1=C(N2CC2)C(=O)C(NCC(N)=O)=C(N2CC2)C1=O`, the T/C is 96 % of control under setting [4]; 115 % of control (dose: 1.0 mg/kg/injection, schedule: Q01DX009 (ip), vehicle: saline); 124 % of control (dose: 4.0 mg/kg/injection, schedule: Q01DX009 (ip), vehicle: saline).

On to `CN(C)CCC#N`, for which the T/C by setting is: under setting [3], 113 % of control and 122 % of control; (dose: 100.0 mg/kg/injection, schedule: Q01DX009 (ip), vehicle: saline) 110 % of control and 113 % of control; (dose: 200.0 mg/kg/injection, schedule: Q01DX009 (ip), vehicle: saline) 105 % of control and 122 % of control.

For `Cc1ccc(S(=O)(=O)N2CCCC(Br)(Br)C(=O)c3ccccc32)cc1`, the T/C runs as follows: (dose: 25.0 mg/kg/injection, schedule: Q04DX003 (ip), vehicle: Klucel (hydroxypropylcellulose) (HPC)) 95 % of control; (dose: 50.0 mg/kg/injection, schedule: Q04DX003 (ip), vehicle: Klucel (hydroxypropylcellulose) (HPC)) 96 % of control; under setting [5], 93 % of control.

As for `O=C(O)c1ccc2c([N+](=O)[O-])cccc2n1`, the T/C reads like this: under setting [6], 112 % of control; under setting [7], 112 % of control.

Consider `CC[S][Hg][Cl]`, for which the T/C runs as follows: (dose: 0.75 mg/kg/injection, schedule: Q04DX003 (ip), vehicle: saline with Tween-80) 93 % of control; (dose: 1.5 mg/kg/injection, schedule: Q04DX003 (ip), vehicle: saline with Tween-80) 100 % of control; (dose: 3.0 mg/kg/injection, schedule: Q04DX003 (ip), vehicle: saline with Tween-80) 97 % of control; (dose: 6.25 mg/kg/injection, schedule: Q04DX003 (ip), vehicle: saline with Tween-80) 86 % of control.

Turning to `Cc1ccc(NC(=O)COc2cc(Cl)c(Cl)cc2Cl)c([N+](=O)[O-])c1`, the T/C by setting is: under setting [7], 93 % of control; under setting [8], 100 % of control.

As to `C[N+]1=CN(c2ccc(Cl)cc2)Cc2cc(Cl)ccc21`, the T/C was 88 % of control under setting [7]; 88 % of control under setting [5]; 86 % of control under setting [8]; 102 % of control (dose: 200.0 mg/kg/injection, schedule: Q04DX003 (ip), vehicle: Klucel (hydroxypropylcellulose) (HPC)); 102 % of control under setting [9]; 100 % of control under setting [10].

In the case of `CC1CCCCC1NC(=O)NCCOC(=O)OCCNC(=O)NC1CCCCC1C` (stereo unspecified), the T/C by setting is: (dose: 100.0 mg/kg/injection, schedule: Q01DX009 (ip), vehicle: saline with Tween-80) 97 % of control; (dose: 200.0 mg/kg/injection, schedule: Q01DX009 (ip), vehicle: saline with Tween-80) 95 % of control; (dose: 400.0 mg/kg/injection, schedule: Q01DX009 (ip), vehicle: saline with Tween-80) 97 % of control.

With `Cc1ccc(S(=O)(=O)N(CCCCN(S(=O)(=O)c2ccc(C)cc2)S(=O)(=O)c2ccc(C)cc2)S(=O)(=O)c2ccc(C)cc2)cc1`, the T/C under setting [5] is 95 % of control and the T/C under setting [10] was 112 % of control.

Regarding `CC[C@@H]1O[C@H]2O[C@@H](/C=C/C=C/C=C/c3oc(=O)cc(OC)c3C)[C@@H](O)[C@@]2(C)[C@]1(C)O`, the T/C was 94 % of control (dose: 0.5 mg/kg/injection, schedule: Q01DX009 (ip), vehicle: Klucel (hydroxypropylcellulose) (HPC)); 90 % of control (dose: 1.0 mg/kg/injection, schedule: Q01DX009 (ip), vehicle: Klucel (hydroxypropylcellulose) (HPC)); 92 % of control (dose: 2.0 mg/kg/injection, schedule: Q01DX009 (ip), vehicle: Klucel (hydroxypropylcellulose) (HPC)).

With `COc1cc(/C=C(/C)[N+](=O)[O-])ccc1O`, the T/C runs as follows: (dose: 50.0 mg/kg/injection, schedule: Q01DX009 (ip), vehicle: carboxymethylcellulose (CMC)) 121 % of control; (dose: 100.0 mg/kg/injection, schedule: Q01DX009 (ip), vehicle: carboxymethylcellulose (CMC)) 102 % of control.

Regarding `NC(=O)c1cn(C2OC(CO)C(O)C2O)c2ncnc(N)c12` (stereo unspecified), the T/C was 100 % of control (dose: 0.09 mg/kg/injection, schedule: Q01DX009 (ip), vehicle: saline); 93 % of control (dose: 0.12 mg/kg/injection, schedule: Q01DX009 (ip), vehicle: water); 97 % of control (dose: 0.13 mg/kg/injection, schedule: Q01DX009 (ip), vehicle: saline); 105 % of control (dose: 0.19 mg/kg/injection, schedule: Q01DX009 (ip), vehicle: saline); 102 % of control (dose: 0.25 mg/kg/injection, schedule: Q01DX009 (ip), vehicle: saline); 106 % of control (dose: 0.25 mg/kg/injection, schedule: Q01DX009 (ip), vehicle: water). Besides, the T/C (dose: 0.38 mg/kg/injection, schedule: Q01DX009 (ip), vehicle: saline) was 105 % of control; the T/C under setting [4] is 102 % of control; the T/C (dose: 0.75 mg/kg/injection, schedule: Q01DX009 (ip), vehicle: saline) was 114 % of control.

As to `CCCCCCCCCC1(C)OCC(COC(N)=O)O1` (stereo unspecified), the T/C was 90 % of control under setting [11]; 90 % of control under setting [6]; 92 % of control under setting [7]; 95 % of control under setting [8]; 95 % of control under setting [9].

`Cc1cc(C(=O)NNCc2ccccc2)no1`: the T/C was 88 % of control and 98 % of control under setting [12]; 88 % of control and 98 % of control under setting [13]; 99 % of control under setting [14]; 90 % of control and 92 % of control and 102 % of control under setting [11]; 90 % of control under setting [6].

`NC(=S)Nc1cccc2ccccc12`: the T/C runs as follows: (dose: 6.25 mg/kg/injection, schedule: Q01DX009 (ip), vehicle: saline with Tween-80) 99 % of control; (dose: 12.5 mg/kg/injection, schedule: Q01DX009 (ip), vehicle: saline with Tween-80) 95 % of control; (dose: 25.0 mg/kg/injection, schedule: Q01DX009 (ip), vehicle: saline with Tween-80) 97 % of control.

Take `Oc1cc(N2CC2)c(O)cc1N1CC1`: the T/C runs as follows: (dose: 0.22 mg/kg/injection, schedule: Q01DX009 (ip), vehicle: saline) 123 % of control; (dose: 0.44 mg/kg/injection, schedule: Q01DX009 (ip), vehicle: saline) 188 % of control; (dose: 0.68 mg/kg/injection, schedule: Q01DX009 (ip), vehicle: saline) 156 % of control and 159 % of control.

For the compound `CN(C)CCCN1c2ccccc2Sc2c(Cl)cc(Cl)cc21`, the T/C was 97 % of control (dose: 3.12 mg/kg/injection, schedule: Q01DX009 (ip), vehicle: saline); 105 % of control (dose: 6.25 mg/kg/injection, schedule: Q01DX009 (ip), vehicle: saline); 102 % of control under setting [1]; 87 % of control under setting [2].

`CCOC(=O)N(NC(=O)c1ccccc1)C(C)=O`: the T/C reads like this: (dose: 6.25 mg/kg/injection, schedule: Q01DX009 (ip), vehicle: other) 101 % of control; (dose: 12.5 mg/kg/injection, schedule: Q01DX009 (ip), vehicle: other) 99 % of control; (dose: 25.0 mg/kg/injection, schedule: Q01DX009 (ip), vehicle: other) 95 % of control; (dose: 50.0 mg/kg/injection, schedule: Q01DX009 (ip), vehicle: other) 95 % of control.

In the case of `Cc1ccc2c(c1)C(=O)N(CC[P+](c1ccccc1)(c1ccccc1)c1ccccc1)C2=O`, the T/C is 93 % of control (dose: 0.78 mg/kg/injection, schedule: Q01DX009 (ip), vehicle: Klucel (hydroxypropylcellulose) (HPC)); 108 % of control (dose: 1.56 mg/kg/injection, schedule: Q01DX009 (ip), vehicle: Klucel (hydroxypropylcellulose) (HPC)); 103 % of control under setting [12]; 103 % of control under setting [13]; 95 % of control under setting [14].
